Here are results for 31 compounds from article PMC12040169 (PLOS Biology, 2025).

The nature of this data set: in vitro. The settings on record: human, hela cells, % viability.

One may read the viability as a read-out of living cells in per cent, often relative to untreated cells. Take `O=C1NC(=S)N(c2ccc(F)cc2)C(=O)/C1=C\NC1CCN(Cc2ccccc2)CC1` [CBK261825]: for the setting “bulk resorufin, single well”, the viability at 28.5 h, 10 µM stood at 93%.
Regarding `CC(=O)Nc1cccc(-c2nccnc2N[C@H](CO)C(C)C)c1` [CBK036611], the viability at 28.5 h, 10 µM was determined as 97%.
Same read-out and setting: the value for `CC1(C)CC(=O)c2sc(NC(=O)C3CC3)nc2C1` [CBK287329] was 104%; that for `CC[C@H](Cn1ncc2ccccc2c1=O)NC(=O)CC(C)C` [CBK284305] was 89.1%.
As for `Cc1ccc(C)c(OCC(=O)Nc2ccccc2C(=O)N2CCN(C)CC2)c1` [CBK269924], the viability at 28.5 h, 10 µM stood at 91.1%.
Same read-out and setting: in the case of `Cc1cc(C)c(NC(=O)C2CCCN2CCCN(C)C)c(C)c1` (stereo not shown) [CBK278172F] it was 97.1%; in that of `Cn1ccnc1C1(O)CC2CCC(C1)N2C(=O)c1ccccc1F` (stereo not shown) [CBK284085], 87.4%; in that of `CN1C2C=C(N(CCc3ccccc3)C(=O)c3ccc(Cl)cc3)CC1CC2` (stereo not shown) [CBK262604C], 94.7%.
Same read-out and setting: the value for `CCC(=O)N1CCN(CCCC(=O)c2ccc(F)cc2)CC1` [CBK025017C] was 108%; that for `N#Cc1cccc(CN2CC[C@H](c3nnc(-c4ccco4)o3)C2)c1` [CBK289394] was 92.5%.
`C(=N\N1CCOCC1)/c1cccs1` [CBK027942]: the viability at 28.5 h, 10 µM turned out to be 96.9%.
As for `COCCNc1nc(-c2ccccc2OC)ccc1C(=O)NCCNC(C)=O` [CBK105974], the viability at 28.5 h, 10 µM was 100%.
Same read-out and setting: in the case of `Cn1c(CCC(=O)Nc2ccc3c(c2)CN(Cc2ccccc2)C3)nc2ccccc21` [CBK285990] it was 81.2%.
Same read-out and setting: in the case of `CCn1cc(NC(=O)NC2CCN(c3ncccc3C#N)CC2)c(C)n1` [CBK307213] it was 93.1%.
`Cc1ccc(S(=O)(=O)NCCCO)cc1C(=O)O` [CBK266610]: the viability at 28.5 h, 10 µM amounted to 89.7%.
Still for that read-out and setting: in the case of `Cc1cc2cc(CNc3cc(-c4ccccc4)ccc3O)c(=O)[nH]c2cc1C` [CBK286164] it was 82.7%; in that of `COc1ccc(CNC(=O)C2CC(=O)N(c3ccc(O)cc3)C2)cc1` (stereo not shown) [CBK270125], 96.8%.
Same read-out and setting: in the case of `O=C(CCCOc1ccccc1)Nc1cccc(N2CCNCC2)c1` [CBK028290T] it was 95.4%; in that of `CCc1ccc2[nH]c(=O)c(CN(CCN(C)C)C(=S)NCc3ccccc3)cc2c1` [CBK134905], 98.4%.
On to `CCN1CCC2CN(CCCC(c3ccc(F)cc3)c3ccc(F)cc3)CCN2C1=O` (stereo not shown) [CBK024996], for which the viability at 28.5 h, 10 µM worked out at 92.7%.
Same read-out and setting: in the case of `Cc1c[nH]c(CN(C)c2cc([C@H]3C[C@@H](N)C3)nc(N3CCCC3)n2)n1` [CBK306798] it was 84.4%.
Consider `O=C(CCc1ccncc1)N1CCC(c2cc3ncccc3[nH]2)CC1` [CBK284460], for which the viability at 28.5 h, 10 µM was found to be 84.3%.
Take `CS(=O)(=O)N1CC2(CCN(CCCC#N)CC2)c2ccccc21` [CBK084014]: the viability at 28.5 h, 10 µM was found to be 97.9%.
On the same count and under the same terms, the value for `CCOC(=O)c1ccc(NC(=O)C(C)Sc2nc3ccccc3[nH]2)cc1` (stereo not shown) [CBK267330] was 91.8%.
On the same count and under the same terms, the value for `Cc1cc(C)c(S(=O)(=O)NCCN2CCN(S(=O)(=O)c3c(C)cc(C)cc3C)CC2)c(C)c1` [CBK265842] was 96%.
As to `Cc1ccc(NC(=O)COc2ccccc2/C=C/C(=O)O)cc1C` [CBK287026], the viability at 28.5 h, 10 µM was determined as 111%.
Still for that read-out and setting: in the case of `CC(=O)N1CCC2(CCCC[C@H]3CN(Cc4coc(C)n4)CC[C@@H]3NC(=O)CNC2=O)CC1` [CBK292165] it was 101%; in that of `COc1cc(C(C)=O)ccc1OCC(O)Cn1c(=O)n(-c2ccccc2)c(=O)c2ccccc21` (stereo not shown) [CBK296677], 94.4%; in that of `COc1ccc(Nc2nc(-c3cccnc3)cnc2N)cc1` [CBK063952], 90.3%.
Still for that read-out and setting: the value for `COC(=O)COc1ccc(C(NC(=O)c2ccccc2)C(Cl)(Cl)Cl)cc1` (stereo not shown) [CBK265437] was 97.8%.
In the case of `O=C(c1cccs1)N1C[C@H](c2ccc(F)cc2)[C@H]2CN(Cc3ccc(F)cc3)CC[C@H]21` [CBK285545], the viability at 28.5 h, 10 µM is 91.3%.
